In patent US6620588B1, “Method of identifying inhibitors of topoisomerase DNA religation” (priority 2000, dated 2003):
Where two headings read alike, the source gives them in different places.

What was measured:
[1] = system: MCV-TOP; experiment: Microtiter plate religation assay for MCV topoisomerase; type: biochemical, molluscum contagiosum virus
[2] = molecular target: T1, EU-TOPO (Bos taurus, UniProt F1MN93); type: biochemical, mammalian; details: for dependence of EU-TOPO inhibition on the base 3′ of the scissile phosphate: EU TG+P compared with EU TA+P substrate; for IC50: read-out: IC50, inhibition of religation by EU-TOPO
T1 construct: purchased Gibco-BRL
Text: The DNA substrate was designed to contain a preferred site for topoisomerase IB action identified in Tetrahymena DNA (A. H. Andersen, E. Gocke, B. J. Bonven, O. F. Nielsen and O. Westergaard. 1985. Topoisomerase I has a strong binding preference for a conserved hexadecameric sequence in the promoter region of the rRNA gene from Tetrahymena pyriformis. Nuc. Acids Res. 13, 1543-1556; B. J. Bonven, E. Bocke and O. Westergaard. 1985. A High Affinity Topoisomerase I Binding Sequence is Clustered at DNase I Hypersensitive Sites in Tetrahymena R-Chromatin. Cell 41, 541-551).
Two orders of addition were compared. Reactions were carried out in which enzyme was preincubated with inhibitor before addition of DNA substrate (FIG. 5, “complete”), which would reveal inhibition at any step in the reaction pathway. Reactions were also carried out in which covalent complexes were formed, then inhibitor added, followed by the religation strand (FIG. 5, “religation”). The latter order of addition tested inhibition of the religation step only.
For EU-TOPO, two different substrate DNAs were tested, containing TA or TG as the bases flanking the scissile phosphate. […] 1998. Molecular Modeling Studies of the DNA-Topoisomerase I Ternary Cleavable Complex with Camptothecin. J. Med. Chem. 41, 2216-2226), so such effects were sought to be discriminated using the microtiter assay.
Standard reaction mixture for assaying EU-TOPO contains 2.5 units EU-TOPO, 2 nM substrate oligonucleotide, 20 mM Tris-Cl (pH 8.0), 72 mM KCl, 5 mM MgCl2, 5 mM DTT and 10% DMSO. EU-TOPO was obtained from Gibco-BRL. The EU-TOPO suicide substrate was based on an optimal sequence found in a Tetrahymena rRNA gene (see FIG. 2B) (A. H. Andersen, E. Gocke, B. J. Bonven, O. F. Nielsen and O. Westergaard. 1985. Topoisomerase I has a strong binding preference for a conserved hexadecameric sequence in the promoter region of the rRNA gene from Tetrahymena pyriformis. Nuc. Acids Res. 13, 1543-1556; B. J. Bonven, E. Bocke and O. Westergaard. 1985. A High Affinity Topoisomerase I Binding Sequence is Clustered at DNase I Hypersensitive Sites in Tetrahymena R-Chromatin. Cell 41, 541-551).
After the topoisomerase reactions were completed, mixtures were adjusted to 20 mM Tris-Cl (pH 8.0), 400 mM NaCl, 10 mM EDTA, and 0.1 mg/ml sonicated salmon sperm DNA in a final volume of 100 μl. 400 mM NaCl was omitted in EU-TOPO assay. The samples were added to avidin-coupled microtiter wells (Boehringer Mannheim), which were then gently agitated at room temperature for 1 hr. Unbound DNA was removed by 3 washes (200 μl, 5 min each) with 30 mM NaOH, 200 mM NaCl, 1 mM EDTA. Bound DNA was then adjusted to 10 mM Tris-Cl (pH 8.0) and 1 mM EDTA. The relative topoisomerase activity was determined using an anti-digoxigenin ELISA. Anti-digoxigenin-peroxidase Fab fragments (0.01 units, Pierce or Boehringer Mannheim) were added into wells and incubated for 1 hr at 37° C. Unbound Anti-digoxigenin peroxidase Fab fragments were removed by 5 washes (300 μl) with PBS containing 0.1% Tween 20. Bound DNA was then incubated with 200 μl of 3,3′-5,5′-tetramethylbenzidine (TMB) solution (Boehringer Mannheim) until sufficient blue product accumulated. The reaction was terminated by adding 100 μl of 1 M sulfuric acid. The resulting yellow color was quantitated at 450 nm.

T1 sequence (F1MN93 entry or part of it): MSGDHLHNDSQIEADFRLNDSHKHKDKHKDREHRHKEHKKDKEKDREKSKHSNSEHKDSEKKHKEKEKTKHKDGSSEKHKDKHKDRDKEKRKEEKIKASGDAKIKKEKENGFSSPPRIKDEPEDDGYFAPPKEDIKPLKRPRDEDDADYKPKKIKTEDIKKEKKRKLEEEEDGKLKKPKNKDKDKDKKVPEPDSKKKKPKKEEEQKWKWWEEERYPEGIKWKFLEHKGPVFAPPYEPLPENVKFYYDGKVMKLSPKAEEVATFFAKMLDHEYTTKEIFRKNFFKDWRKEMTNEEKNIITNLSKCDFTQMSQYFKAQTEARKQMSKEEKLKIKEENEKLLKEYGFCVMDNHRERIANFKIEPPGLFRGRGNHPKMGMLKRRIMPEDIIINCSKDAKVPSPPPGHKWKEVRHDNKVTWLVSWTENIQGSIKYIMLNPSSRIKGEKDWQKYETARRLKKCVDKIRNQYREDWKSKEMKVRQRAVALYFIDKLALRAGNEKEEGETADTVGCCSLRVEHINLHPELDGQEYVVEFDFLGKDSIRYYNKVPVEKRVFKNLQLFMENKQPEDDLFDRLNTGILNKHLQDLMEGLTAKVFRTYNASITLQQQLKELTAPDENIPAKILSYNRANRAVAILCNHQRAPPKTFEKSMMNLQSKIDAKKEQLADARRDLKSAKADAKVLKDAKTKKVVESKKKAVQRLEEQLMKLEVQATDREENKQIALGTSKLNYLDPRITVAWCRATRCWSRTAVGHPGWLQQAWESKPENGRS

| Compound | activity against MCV-TOP ([1]; FIG. 5A) | dependence of EU-TOPO inhibition on the base 3′ of the scissile phosphate [2] | effect on MCV-TOP ([1]; in the concentration range of the EU-TOPO IC50s (nanomolar)) | IC50 ([2]; EU TA+P substrate (A/T base pair 3′ of the point of cleavage)) | IC50 ([2]; EU TG+P substrate (G/C base pair 3′ of the point of cleavage)) | inhibition of MCV-TOP, religation step ([1]; inhibitor added after covalent complex formation, FIG. 5A) | inhibition of MCV-TOP, complete reaction ([1]; inhibitor added to enzyme before DNA substrate, FIG. 5A) | inhibition of EU-TOPO ([2]; FIGS. 5B and 5C) | inhibition of EU-TOPO, complete reaction compared with religation ([2]; two orders of addition) |
| --- | --- | --- | --- | --- | --- | --- | --- | --- | --- |
| CC[C@@]1(O)C(=O)OCc2c1cc1n(c2=O)Cc2cc3ccccc3nc2-1 [Camptothecin] | not active | more efficient when the 3′ base was G |  |  |  |  |  |  |  |
| (−)-epigallocatechin 3-O-gallate [EGCG] |  | far more inhibitory on the DNA substrate containing a G/C base pair 3′ of the point of cleavage | no effect | 500 nM | 26 nM |  |  |  |  |
| Coumermycin A1 |  | not sensitive |  |  |  | not religation | inhibit the complete reaction | inhibited | comparable |
